Reference: publication PMC5034043 (The Journal of Biological Chemistry, 2016)
Like-named read-outs stand apart in the source and are kept apart here.

Test system: T1, synaptosomal proteome
T1 construct: from tissue; host or cells: brain synaptosomes of male C57/B6 mice
Format: binding, mouse
Method: Synaptosomes were resuspended to 1 mg of protein/ml in HEPES buffer medium (in mM: 140 NaCl, 5 KCl, 5 NaHCO3, 1.2 NaH2PO4, 1 MgCl2, 10 glucose, and 10 HEPES (pH 7.4)). […] The samples were allowed to equilibrate for 5 min before being transferred to a parafilm-sealed 1-mm path length quartz cuvette. The sample was then irradiated for 20 min at a peak bandwidth of 350 nm (Rayonet RPR-3500 lamp) ∼6 cm from the light source. Non-irradiated samples were left in the dark at ambient temperature (22–25 °C) for 20 min. All remaining procedures were conducted with restricted light exposure.
To 750 μg of photolabeled or control synaptosome samples, 40 μl of 10% SDS and 2 μl of 5 mM DTT in water were added. Samples were then vortexed, heated for 10 min at 65 °C, and then briefly cooled. Final concentrations of 150 μM azide-biotin (Click Chemistry Tools), 2 mM tris(3-hydroxypropyltriazolylmethyl)amine (Sigma), 1 mM ascorbic acid (Sigma), and 1 mM CuSO4·5H2O (Sigma) were added to each sample and vortexed vigorously. The samples were left in the dark at ambient temperature (22–25 °C) for 1 h with mild agitation. Directly to each sample 4× volume chilled methanol, 1.5× chilled chloroform, and 3× chilled double distilled H2O were added. Samples were vortexed vigorously and centrifuged at 1,400 × g for 30 min at 4 °C. Both liquid layers were carefully removed, and the protein pellet was washed with 2 ml of 1:1 (v/v) chilled methanol/chloroform. Samples were centrifuged at 3,500 × g for 30 min at 4 °C. Protein pellets were briefly air-dried before further processing.
750 μg of biotin-conjugated protein sample was resuspended in 500 μl of 25 mM NH4HCO3 and 6 M urea in water. Next, 150 μl of 5% Triton X-100 in water, 50 μl of 10% SDS in water, and 1.5 μl of 0.5 M DTT were added. The samples were heated for 15 min at 65 °C. After briefly cooling, 14 μl of 0.5 M iodoacetamide in water was added, and the sample was left in the dark for 45 min. […] The supernatant was diluted to 4 ml with PBS, and 2 ml of PBS containing 100 μl of 50% streptavidin-agarose resin (Thermo Scientific) was added. Biotinylated proteins within the sample were captured over resin overnight at 4 °C with mild agitation. The resin was first washed with 6 ml of 1% SDS in PBS, and then 7 ml of 0.1 M urea in PBS followed by 10 ml of PBS. The resin underwent a final wash with 0.9 ml of 50 mM Tris-HCl and 1 mM CaCl2 in water (pH 8.0) and then resuspended in 200 μl of 50 mM Tris-HCl, 1 mM CaCl2 in water (pH 8.0), and 2 μg of porcine sequencing grade trypsin (Promega). Samples were digested overnight at 37 °C. Samples were then centrifuged at 2,000 × g for 4 min, and digest supernatant was decanted. Beads were washed in 100 μl of PBS centrifuged at 5,200 × g for 5 min, and the wash was combined with the digest supernatant. To the combined sample, trifluoroacetic acid (TFA) was added to 0.4% (v/v) or until pH <2. The sample was desalted with Oasis C18 10-mg columns (Waters) as described previously ([66]). The eluted sample was dried by speed vac and resuspended in 0.1 M HEPES buffer (pH 8.5). […] Appropriate corresponding TMTsixplex^TM-labeled samples were pooled and dried by speed vac. The combined samples were resuspended in 0.5% acetic acid in water and pH-corrected with acetic acid until pH was <2. 40 μg of protein was desalted with C18 stage tips prepared in-house and dried by speed vac.
Samples were resuspended in 10 mM KH2PO4 (pH 2.6), 30% acetonitrile (v/v) in water, and fractionated by off-line strong cation exchange chromatography prior to mass spectrometry (MS) analysis similar to as reported previously ([66]). The full synaptosome proteome control was prepared similarly without TMTsixplex^TM labeling.
All TMT samples were analyzed with three-stage mass spectrometry (MS3) TMTsixplex^TM quantification workflow as described previously ([34]).

[1] = protein P26049 Gamma-aminobutyric acid receptor subunit alpha-3 (Gabra3)
[2] = protein P27671 Ras-specific guanine nucleotide-releasing factor 1 (Rasgrf1)
[3] = protein P35762 CD81 antigen (Cd81)
[4] = protein P50571 Gamma-aminobutyric acid receptor subunit beta-1 (Gabrb1)
[5] = protein P56480 ATP synthase subunit beta, mitochondrial (Atp5b)
[6] = protein P56564 Excitatory amino acid transporter 1 (Slc1a3)
[7] = protein P60879 Synaptosomal-associated protein 25 (Snap25)
[8] = protein P61264 Syntaxin-1B (Stx1b)
[9] = protein P62204 Calmodulin (Calm1)
[10] = protein P63328 Serine/threonine-protein phosphatase 2B catalytic subunit alpha isoform (Ppp3ca)
[11] = protein Q2TPA8 Hydroxysteroid dehydrogenase-like protein 2 (Hsdl2)
[12] = protein Q3TXX4 Vesicular glutamate transporter 1 (Slc17a7)
[13] = protein Q3UN02 Lysocardiolipin acyltransferase 1 (Lclat1)
[14] = protein Q4W8U9 Scg2 protein (Scg2)
[15] = protein Q5IRJ6 Zinc transporter 9 (Slc30a9)
[16] = protein Q5U458 DnaJ homolog subfamily C member 11 (Dnajc11)
[17] = protein Q7TME0 Lipid phosphate phosphatase-related protein type 4 (Lppr4)
[18] = protein Q7TQ95 Protein lunapark (Lnp)
[19] = protein Q8BFT9 Synaptic vesicle 2-related protein (Svop)
[20] = protein Q8BG51 Mitochondrial Rho GTPase 1 (Rhot1)
[21] = protein Q8BH24 Transmembrane 9 superfamily member 4 (Tm9sf4)
[22] = protein Q8BH66 Atlastin-1 (Atl1)
[23] = protein Q8BHE3 Caytaxin (Atcay)
[24] = protein Q8BUN9 Protein Slc24a2 (Slc24a2)
[25] = protein Q8BW75 Amine oxidase [flavin-containing] B (Maob)
[26] = protein Q8CGK7 Guanine nucleotide-binding protein G(olf) subunit alpha (Gnal)
[27] = protein Q8K0T0 Reticulon-1 (Rtn1)
[28] = protein Q8VCX5 Calcium uptake protein 1, mitochondrial (Micu1)
[29] = protein Q9CPQ3 Mitochondrial import receptor subunit TOM22 homolog (Tomm22)
[30] = protein Q9D6J5 NADH dehydrogenase [ubiquinone] 1 beta subcomplex subunit 8, mitochondrial (Ndufb8)
[31] = protein Q9D328 Transmembrane protein 35 (Tmem35)
[32] = protein Q9ERS2 NADH dehydrogenase [ubiquinone] 1 alpha subcomplex subunit 13 (Ndufa13)
[33] = protein Q9ESW4 Acylglycerol kinase, mitochondrial (Agk)
[34] = protein Q9JIG8 PRA1 family protein 2 (Praf2)
[35] = protein Q9QXV0 ProSAAS (Pcsk1n)
[36] = protein Q9WU79 Proline dehydrogenase 1, mitochondrial (Prodh)
[37] = protein Q9Z0V2 Potassium voltage-gated channel subfamily D member 2 (Kcnd2)
[38] = protein Q67BT3 Solute carrier family 13 member 5 (Slc13a5)
[39] = protein Q80X80 C2 domain-containing protein 2-like (C2cd2l)
[40] = protein Q91YQ5 Dolichyl-diphosphooligosaccharide--protein glycosyltransferase subunit 1 (Rpn1)
[41] = protein Q99JB2 Stomatin-like protein 2, mitochondrial (Stoml2)
[42] = protein Q99PU5 Long-chain-fatty-acid--CoA ligase ACSBG1 (Acsbg1)
[43] = protein Q925I1 ATPase family AAA domain-containing protein 3 (Atad3)

C#CCOCc1ccc(C2(C(F)(F)F)N=N2)cc1O [AziPm-click (1), 2-((prop-2-yn-1-yloxy)methyl)-5-(3-(trifluoromethyl)-3H-diazirin-3-yl)phenol]
TMT Ratio Mean 'UV/ No UV' (protein O35963 Ras-related protein Rab-33B (Rab33b)): 16.23
Log2( Mean 'UV/ No UV') (protein P23819-4 Isoform 4 of Glutamate receptor 2 (Gria2)): 3.65
Log2( Mean 'UV/ No UV') [1]: 4.09
TMT Ratio Mean 'UV/ No UV' [1]: 17.05
Log2( Mean 'UV/ No UV') [2]: 4.14
TMT Ratio Mean 'UV/ No UV' [2]: 17.58
Log2( Mean 'UV/ No UV') (protein P35564 Calnexin (Canx)): 4.47
TMT Ratio Mean 'UV/ No UV' (protein P35564 Calnexin (Canx)): 22.10
Log2( Mean 'UV/ No UV') [3]: 4.34
TMT Ratio Mean 'UV/ No UV' [3]: 20.23
Log2( Mean 'UV/ No UV') [4]: 4.63
TMT Ratio Mean 'UV/ No UV' [4]: 24.73
Log2( Mean 'UV/ No UV') [5]: 3.54
TMT Ratio Mean 'UV/ No UV' [5]: 11.59
Log2( Mean 'UV/ No UV') [6]: 4.59
TMT Ratio Mean 'UV/ No UV' [6]: 24.11
Log2( Mean 'UV/ No UV') [7]: 4.57
TMT Ratio Mean 'UV/ No UV' [7]: 23.77
Log2( Mean 'UV/ No UV') [8]: 4.37
TMT Ratio Mean 'UV/ No UV' [8]: 20.71
Log2( Mean 'UV/ No UV') [9]: 4.63
TMT Ratio Mean 'UV/ No UV' [9]: 24.78
Log2( Mean 'UV/ No UV') [10]: 3.65
TMT Ratio Mean 'UV/ No UV' [10]: 12.55
Log2( Mean 'UV/ No UV') (protein P70429-2 Isoform 1 of Ena/VASP-like protein (Evl)): 4.31
Log2( Mean 'UV/ No UV') (protein P97300-3 Isoform 3 of Neuroplastin (Nptn)): 3.67
Log2( Mean 'UV/ No UV') [11]: 3.68
TMT Ratio Mean 'UV/ No UV' [11]: 12.83
Log2( Mean 'UV/ No UV') [12]: 4.04
TMT Ratio Mean 'UV/ No UV' [12]: 16.48
Log2( Mean 'UV/ No UV') [13]: 4.50
TMT Ratio Mean 'UV/ No UV' [13]: 22.69
Log2( Mean 'UV/ No UV') [14]: 4.03
TMT Ratio Mean 'UV/ No UV' [14]: 16.35
Log2( Mean 'UV/ No UV') [15]: 4.34
TMT Ratio Mean 'UV/ No UV' [15]: 20.22
Log2( Mean 'UV/ No UV') [16]: 3.93
TMT Ratio Mean 'UV/ No UV' [16]: 15.27
Log2( Mean 'UV/ No UV') [17]: 3.46
TMT Ratio Mean 'UV/ No UV' [17]: 10.98
Log2( Mean 'UV/ No UV') [18]: 3.56
TMT Ratio Mean 'UV/ No UV' [18]: 11.82
Log2( Mean 'UV/ No UV') [19]: 3.80
TMT Ratio Mean 'UV/ No UV' [19]: 13.90
Log2( Mean 'UV/ No UV') [20]: 3.48
TMT Ratio Mean 'UV/ No UV' [20]: 11.17
Log2( Mean 'UV/ No UV') [21]: 4.09
TMT Ratio Mean 'UV/ No UV' [21]: 16.97
Log2( Mean 'UV/ No UV') [22]: 4.36
TMT Ratio Mean 'UV/ No UV' [22]: 20.55
Log2( Mean 'UV/ No UV') [23]: 4.15
TMT Ratio Mean 'UV/ No UV' [23]: 17.78
Log2( Mean 'UV/ No UV') (protein Q8BJU0-2 Isoform 2 of Small glutamine-rich tetratricopeptide repeat-containing protein alpha (Sgta)): 3.93
Log2( Mean 'UV/ No UV') [24]: 4.26
TMT Ratio Mean 'UV/ No UV' [24]: 19.15
Log2( Mean 'UV/ No UV') [25]: 4.59
TMT Ratio Mean 'UV/ No UV' [25]: 24.13
Log2( Mean 'UV/ No UV') [26]: 3.86
TMT Ratio Mean 'UV/ No UV' [26]: 14.56
Log2( Mean 'UV/ No UV') [27]: 3.46
TMT Ratio Mean 'UV/ No UV' [27]: 10.99
Log2( Mean 'UV/ No UV') [28]: 4.33
TMT Ratio Mean 'UV/ No UV' [28]: 20.04
Log2( Mean 'UV/ No UV') [29]: 4.38
TMT Ratio Mean 'UV/ No UV' [29]: 20.75
Log2( Mean 'UV/ No UV') [30]: 4.29
TMT Ratio Mean 'UV/ No UV' [30]: 19.55
Log2( Mean 'UV/ No UV') [31]: 4.09
TMT Ratio Mean 'UV/ No UV' [31]: 16.99
Log2( Mean 'UV/ No UV') (protein Q9DBF1-2 Isoform 2 of Alpha-aminoadipic semialdehyde dehydrogenase (Aldh7a1)): 3.89
Log2( Mean 'UV/ No UV') (protein Q9EPJ9-2 Isoform 2 of ADP-ribosylation factor GTPase-activating protein 1 (Arfgap1)): 3.44
Log2( Mean 'UV/ No UV') [32]: 4.27
TMT Ratio Mean 'UV/ No UV' [32]: 19.26
Log2( Mean 'UV/ No UV') [33]: 4.32
TMT Ratio Mean 'UV/ No UV' [33]: 20.02
Log2( Mean 'UV/ No UV') [34]: 3.94
TMT Ratio Mean 'UV/ No UV' [34]: 15.37
Log2( Mean 'UV/ No UV') [35]: 3.87
TMT Ratio Mean 'UV/ No UV' [35]: 14.66
Log2( Mean 'UV/ No UV') [36]: 4.21
TMT Ratio Mean 'UV/ No UV' [36]: 18.52
Log2( Mean 'UV/ No UV') [37]: 3.71
TMT Ratio Mean 'UV/ No UV' [37]: 13.09
Log2( Mean 'UV/ No UV') [38]: 3.47
TMT Ratio Mean 'UV/ No UV' [38]: 11.09
Log2( Mean 'UV/ No UV') [39]: 4.07
TMT Ratio Mean 'UV/ No UV' [39]: 16.73
Log2( Mean 'UV/ No UV') [40]: 3.76
TMT Ratio Mean 'UV/ No UV' [40]: 13.55
Log2( Mean 'UV/ No UV') [41]: 4.08
TMT Ratio Mean 'UV/ No UV' [41]: 16.91
Log2( Mean 'UV/ No UV') [42]: 4.16
TMT Ratio Mean 'UV/ No UV' [42]: 17.83
Log2( Mean 'UV/ No UV') [43]: 4.41
TMT Ratio Mean 'UV/ No UV' [43]: 21.20
